Assay results published in US6114371A, “3-(cyclohexanoheteroarylidenyl)-2-indolinone protein tyrosine kinase inhibitors” (Sugen, Inc., priority 1998, dated 2000).
pIC50: −log10 of the molar value.

Legend:
[1] = biological target: T1, lck protein kinase (Homo sapiens, UniProt P06239); assay: Biochemical lck assay - ELISA; conditions: Table 2
T1 construct: made in house; host or cells: Schizosaccharomyces pombe strain SP200 (lysate)
Description: This assay is used to determine lck protein kinase activities measuring phosphorylation of GST-.zeta. as the readout.
(§1) b. Yeast transformed with lck. […] S. Pombe strain SP200 (h-s leul.32 ura4 ade210) is grown as described and transformations with pRSP expression plasmids are done by the lithium acetate method (Superti-Furga, supra). Cells are grown in the presence of 1 μM thiamine to induce expression.
2. Add 0.08 mL Kinase Reaction Mixture per well (containing 10 μl of 10×Kinase Buffer and 2 μg GST-.zeta. per well diluted with water).
(§2) 3. Add 10 μL of compound diluted in water containing 10% DMSO and pre-incubate for 15 minutes at room temperature.
4. Start kinase reaction by adding 10 μL/well of 0.1 mM ATP in water (10 μM ATP final).
The IC50 values were measured for one of the compounds of the invention.

[2] = biological target: PDGFr (Homo sapiens, UniProt P09619); assay: PDGF-R ELISA; assay type: cell-based; set-up: cells (U1242, obtained from Joseph Schlessinger, NYU); endogenous in cells; host or cells: U1242; conditions: read-out: PDGFR IC50; Table 2
Chain of PDGFr (P09619 33-1106): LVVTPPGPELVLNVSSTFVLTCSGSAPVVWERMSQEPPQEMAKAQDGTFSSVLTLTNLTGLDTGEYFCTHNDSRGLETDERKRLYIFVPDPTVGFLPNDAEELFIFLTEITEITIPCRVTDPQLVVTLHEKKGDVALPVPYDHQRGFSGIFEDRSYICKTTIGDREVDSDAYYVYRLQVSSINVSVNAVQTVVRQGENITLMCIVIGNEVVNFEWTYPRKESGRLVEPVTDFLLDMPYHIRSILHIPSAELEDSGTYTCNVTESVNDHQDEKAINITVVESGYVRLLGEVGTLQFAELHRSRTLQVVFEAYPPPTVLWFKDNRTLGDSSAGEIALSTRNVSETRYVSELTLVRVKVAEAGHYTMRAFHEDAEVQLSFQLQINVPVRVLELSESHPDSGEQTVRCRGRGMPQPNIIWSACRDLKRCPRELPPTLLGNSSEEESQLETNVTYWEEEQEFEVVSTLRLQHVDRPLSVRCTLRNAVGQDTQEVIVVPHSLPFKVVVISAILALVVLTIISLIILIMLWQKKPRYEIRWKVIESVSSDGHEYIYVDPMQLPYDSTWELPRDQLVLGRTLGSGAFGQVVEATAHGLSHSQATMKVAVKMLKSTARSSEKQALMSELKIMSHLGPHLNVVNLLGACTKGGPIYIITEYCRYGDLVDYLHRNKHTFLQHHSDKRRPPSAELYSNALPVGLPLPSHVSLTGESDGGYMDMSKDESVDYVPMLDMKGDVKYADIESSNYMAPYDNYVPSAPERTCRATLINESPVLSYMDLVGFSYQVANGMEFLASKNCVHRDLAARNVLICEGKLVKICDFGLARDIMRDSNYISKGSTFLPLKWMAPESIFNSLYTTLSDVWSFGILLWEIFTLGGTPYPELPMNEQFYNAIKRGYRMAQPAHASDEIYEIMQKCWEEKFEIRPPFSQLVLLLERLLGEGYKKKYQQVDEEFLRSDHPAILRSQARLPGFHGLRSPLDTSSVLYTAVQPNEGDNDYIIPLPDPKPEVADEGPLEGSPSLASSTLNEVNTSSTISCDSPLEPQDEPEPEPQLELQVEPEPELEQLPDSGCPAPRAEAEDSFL

[3] = system: HUV-EC-C cells; assay: HUV-EC-C assay, VEGF (3H-thymidine incorporation); assay type: cell-based, human; conditions: Table 2, VEGF-stimulated HUV-EC-C, read-out: HUV-EC-C ATCC VEGF IC50
Description: (§3) The following protocol may also be used to measure a compound's activity against PDGF-R, FGF-R, VEGF, aFGF or Flk-1/KDR, all of which are naturally expressed by HUV-EC cells.
(§4) 1. […] After cells have detached from the flask, add an equal volume of assay medium and transfer to a 50 mL sterile centrifuge tube (Fisher Scientific; catalogue no. 05-539-6).
(§5) 1. Make up two-fold drug titrations in separate 96-well plates, generally 50 μM on down to 0 μM. Use the same assay medium as mentioned in day 0, step 2 above. Titrations are made by adding 90 μl/well of drug at 200 μM (4×the final well concentration) to the top well of a particular plate column. Since the stock drug concentration is usually 20 mM in DMSO, the 200 μM drug concentration contains 2% DMSO.
Therefore, diluent made up to 2% DMSO in assay medium (F12K+0.5% fetal bovine serum) is used as diluent for the drug titrations in order to dilute the drug but keep the DMSO concentration constant. Add this diluent to the remaining wells in the column at 60 μl/well. […]
(§6) 1. Thaw plates and harvest with a 96-well plate harvester (Tomtec Harvester 96®) onto filter mats (Wallac; catalogue no. 1205-401); read counts on a Wallac Betaplate™ liquid scintillation counter.
(§7) The IC50 values were measured for several of the compounds of the invention.

[4] = biological target: FAK (Homo sapiens, UniProt Q05397); assay: FAK assay; assay type: biochemical; conditions: Table 2
Chain of FAK (Q05397 whole entry, species assumed): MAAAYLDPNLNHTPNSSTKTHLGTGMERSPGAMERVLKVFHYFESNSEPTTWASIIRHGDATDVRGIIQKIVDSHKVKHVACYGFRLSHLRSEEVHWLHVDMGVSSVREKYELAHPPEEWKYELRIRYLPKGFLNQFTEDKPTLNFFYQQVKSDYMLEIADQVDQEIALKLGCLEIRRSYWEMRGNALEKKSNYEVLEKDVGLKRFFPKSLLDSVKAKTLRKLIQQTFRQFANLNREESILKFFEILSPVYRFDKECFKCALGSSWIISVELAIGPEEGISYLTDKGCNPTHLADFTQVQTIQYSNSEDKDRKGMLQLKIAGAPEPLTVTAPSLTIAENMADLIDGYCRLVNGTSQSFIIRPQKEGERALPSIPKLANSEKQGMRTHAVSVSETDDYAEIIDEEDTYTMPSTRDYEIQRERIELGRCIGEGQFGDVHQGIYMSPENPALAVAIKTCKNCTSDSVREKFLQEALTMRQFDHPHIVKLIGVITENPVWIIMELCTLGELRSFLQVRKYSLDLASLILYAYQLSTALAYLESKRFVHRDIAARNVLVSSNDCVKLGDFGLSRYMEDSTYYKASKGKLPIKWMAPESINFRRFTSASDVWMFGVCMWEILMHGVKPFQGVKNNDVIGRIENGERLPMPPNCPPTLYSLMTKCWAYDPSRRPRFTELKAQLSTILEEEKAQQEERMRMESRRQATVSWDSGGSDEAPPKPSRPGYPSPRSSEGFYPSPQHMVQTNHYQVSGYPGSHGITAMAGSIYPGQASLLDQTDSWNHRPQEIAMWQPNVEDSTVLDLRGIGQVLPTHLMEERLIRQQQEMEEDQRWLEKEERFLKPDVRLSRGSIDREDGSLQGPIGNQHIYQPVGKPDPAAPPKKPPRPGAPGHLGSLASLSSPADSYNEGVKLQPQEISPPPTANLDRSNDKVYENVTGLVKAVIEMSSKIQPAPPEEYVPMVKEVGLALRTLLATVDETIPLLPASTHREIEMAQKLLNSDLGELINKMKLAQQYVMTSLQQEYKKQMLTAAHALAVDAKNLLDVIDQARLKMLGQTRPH

[5] = system: HUV-EC-C cells; assay: HUV-EC-C assay, aFGF (3H-thymidine incorporation); assay type: cell-based, human; conditions: Table 2, aFGF-stimulated HUV-EC-C, read-out: HUV-EC-C ATCC aFGF IC50
Description: as §3, §4, §5
Therefore, diluent made up to 2% DMSO in assay medium (F12K+0.5% fetal bovine serum) is used as diluent for the drug titrations in order to dilute the drug but keep the DMSO concentration constant. Add this diluent to the remaining wells in the column at 60 μl/well. Take 60 μl from the 120 μl of 200 μM drug dilution in the top well of the column and mix with the 60 μl in the second well of the column. Take 60 μl from this well and mix with the 60 μl in the third well of the column, and so on until two-fold titrations are completed. When the next-to-the-last well is mixed, take 60 μl of the 120 μl in this well and discard it. Leave the last well with 60 μl of DMSO/media diluent as a non-drug-containing control. Make 9 columns of titrated drug, enough for triplicate wells each for 1) VEGF (obtained from Pepro Tech Inc., catalogue no. 100-200, 2) endothelial cell growth factor (ECGF) (also known as acidic fibroblast growth factor, or aFGF) (obtained from Boehringer Mannheim Biochemica, catalogue no. 1439 600); or, 3) human PDGF B/B (1276-956, Boehringer Mannheim, Germany) and assay media control. ECGF comes as a preparation with sodium heparin.
2. Transfer 50 μl/well of the drug dilutions to the 96-well assay plates containing the 0.8-1.0×10^4 cells/100 μl/well of the HUV-EC-C cells from day 0 and incubate ~2 h at 37° C., 5% CO2.
3. In triplicate, add 50 μl/well of […] VEGF, 20 ng/mL ECGF, or media control to each drug condition. As with the drugs, the growth factor concentrations are 4×the desired final concentration. Use the assay media from day 0 step 2 to make the concentrations of growth factors. Incubate approximately 24 hours at 37° C., 5% CO2. Each well will have 50 μl drug dilution, 50 μl growth factor or media, and 100 ul cells, =200 ul/well total. Thus the 4×concentrations of drugs and growth factors become 1× once everything has been added to the wells.
1. Add ^3 H-thymidine (Amersham; catalogue no. TRK-686) at 1 μCi/well (10 μl/well of 100 μCi/mL solution made up in RPMI media+10% heat-inactivated fetal bovine serum) and incubate ~24 h at 37° C., 5% CO2. RPMI is obtained from Gibco BRL, catalogue no. 11875-051.
as §6, §7

[6] = biological target: T2, src protein kinase (Gallus gallus, UniProt P00523); assay: Biochemical src assay - ELISA; conditions: Table 2
T2 construct: made in house; host or cells: Schizosaccharomyces pombe (yeast transformed with src, lysate)
Description: This assay is used to determine src protein kinase activity measuring phosphorylation of a biotinylated peptide as the readout.
as §1, with “h.” for “b. Yeast transformed with lck.”, “are” for “with”, “to repress expression from the nmtl promoter or in the absence of thiamine to” for “to”
2. Add 0.08 mL Kinase Reaction Mixture per well (containing 10 μL of 10×Kinase Buffer and 10 μM (final concentration) biotin-[…] per well diluted in water.
as §2
4. Start kinase reaction by adding 10 μL/well of 0.05 mM ATP in water (5 μM ATP final).
as §7

[7] = biological target: EGFr (Homo sapiens, UniProt P00533); assay: EGF receptor ELISA; assay type: cell-based; set-up: expressed in transfected cells; host or cells: NIH 3T3/C7; conditions: Table 2; read-out: EGFR IC50
Chain of EGFr (P00533 25-1210): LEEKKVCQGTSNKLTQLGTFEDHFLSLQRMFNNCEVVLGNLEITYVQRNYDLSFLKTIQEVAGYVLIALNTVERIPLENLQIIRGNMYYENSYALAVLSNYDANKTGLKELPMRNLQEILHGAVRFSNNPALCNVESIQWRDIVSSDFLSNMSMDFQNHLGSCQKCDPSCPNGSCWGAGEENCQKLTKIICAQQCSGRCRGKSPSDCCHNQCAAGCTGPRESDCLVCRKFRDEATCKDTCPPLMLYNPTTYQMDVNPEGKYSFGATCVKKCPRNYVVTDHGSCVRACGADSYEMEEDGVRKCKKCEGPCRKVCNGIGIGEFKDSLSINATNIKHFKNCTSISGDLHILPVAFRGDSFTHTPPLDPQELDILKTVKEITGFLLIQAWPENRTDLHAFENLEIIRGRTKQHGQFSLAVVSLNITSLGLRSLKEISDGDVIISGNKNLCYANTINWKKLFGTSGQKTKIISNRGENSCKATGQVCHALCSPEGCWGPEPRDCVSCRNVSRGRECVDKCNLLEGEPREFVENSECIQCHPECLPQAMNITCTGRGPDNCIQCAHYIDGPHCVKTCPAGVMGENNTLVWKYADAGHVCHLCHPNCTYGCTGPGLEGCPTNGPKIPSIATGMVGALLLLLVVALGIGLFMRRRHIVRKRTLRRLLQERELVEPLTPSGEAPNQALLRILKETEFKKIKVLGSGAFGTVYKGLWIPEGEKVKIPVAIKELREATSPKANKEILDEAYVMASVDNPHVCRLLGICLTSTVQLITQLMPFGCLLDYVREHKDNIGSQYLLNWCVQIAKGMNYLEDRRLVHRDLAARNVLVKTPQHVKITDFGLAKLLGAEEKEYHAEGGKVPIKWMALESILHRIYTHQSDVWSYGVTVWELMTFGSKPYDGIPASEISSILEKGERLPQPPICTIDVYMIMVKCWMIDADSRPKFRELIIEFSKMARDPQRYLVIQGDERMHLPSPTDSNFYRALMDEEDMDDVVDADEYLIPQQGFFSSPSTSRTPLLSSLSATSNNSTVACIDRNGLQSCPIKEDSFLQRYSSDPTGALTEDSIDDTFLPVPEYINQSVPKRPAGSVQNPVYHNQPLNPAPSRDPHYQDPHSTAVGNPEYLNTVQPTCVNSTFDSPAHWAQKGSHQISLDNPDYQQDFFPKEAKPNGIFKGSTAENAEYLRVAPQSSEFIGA
Description: EGF Receptor kinase activity in cells genetically engineered to express human EGF-R can be measured as described below:
1. Check seeded cells for contamination using an inverted microscope. Dilute drug stock (10 mg/mL in DMSO) 1:10 in DMEM medium, then transfer 5 μL to a test well for a final drug dilution of 1:200 and a final DMSO concentration of 1%. Control wells receive DMSO alone. Incubate in 5% CO2 at 37° C. for one hour.
5. After two hours incubation with drug, add prepared EGF ligand to cells, 10 μL per well, to yield a final concentration of 25 nM. Control wells receive DMEM alone. Incubate, shaking, at room temperature, for 5 minutes.
12. The maximal phosphotyrosine signal is determined by subtracting the value of the negative controls from the positive controls. The percent inhibition of phosphotyrosine content for extract-containing wells is then calculated, after subtraction of the negative controls.

[8] = biological target: T3, FLK-1 receptor (Mus musculus, UniProt P35918); assay: FLK-1 ELISA (kinase activity of the FLK-1 receptor in engineered cells); assay type: cell-based; conditions: Table 2; read-out: FLK-1R IC50
T3 construct: expressed in transfected cells; host or cells: NIH3T3 C7#3 cells
T3 sequence (P35918 20-1345): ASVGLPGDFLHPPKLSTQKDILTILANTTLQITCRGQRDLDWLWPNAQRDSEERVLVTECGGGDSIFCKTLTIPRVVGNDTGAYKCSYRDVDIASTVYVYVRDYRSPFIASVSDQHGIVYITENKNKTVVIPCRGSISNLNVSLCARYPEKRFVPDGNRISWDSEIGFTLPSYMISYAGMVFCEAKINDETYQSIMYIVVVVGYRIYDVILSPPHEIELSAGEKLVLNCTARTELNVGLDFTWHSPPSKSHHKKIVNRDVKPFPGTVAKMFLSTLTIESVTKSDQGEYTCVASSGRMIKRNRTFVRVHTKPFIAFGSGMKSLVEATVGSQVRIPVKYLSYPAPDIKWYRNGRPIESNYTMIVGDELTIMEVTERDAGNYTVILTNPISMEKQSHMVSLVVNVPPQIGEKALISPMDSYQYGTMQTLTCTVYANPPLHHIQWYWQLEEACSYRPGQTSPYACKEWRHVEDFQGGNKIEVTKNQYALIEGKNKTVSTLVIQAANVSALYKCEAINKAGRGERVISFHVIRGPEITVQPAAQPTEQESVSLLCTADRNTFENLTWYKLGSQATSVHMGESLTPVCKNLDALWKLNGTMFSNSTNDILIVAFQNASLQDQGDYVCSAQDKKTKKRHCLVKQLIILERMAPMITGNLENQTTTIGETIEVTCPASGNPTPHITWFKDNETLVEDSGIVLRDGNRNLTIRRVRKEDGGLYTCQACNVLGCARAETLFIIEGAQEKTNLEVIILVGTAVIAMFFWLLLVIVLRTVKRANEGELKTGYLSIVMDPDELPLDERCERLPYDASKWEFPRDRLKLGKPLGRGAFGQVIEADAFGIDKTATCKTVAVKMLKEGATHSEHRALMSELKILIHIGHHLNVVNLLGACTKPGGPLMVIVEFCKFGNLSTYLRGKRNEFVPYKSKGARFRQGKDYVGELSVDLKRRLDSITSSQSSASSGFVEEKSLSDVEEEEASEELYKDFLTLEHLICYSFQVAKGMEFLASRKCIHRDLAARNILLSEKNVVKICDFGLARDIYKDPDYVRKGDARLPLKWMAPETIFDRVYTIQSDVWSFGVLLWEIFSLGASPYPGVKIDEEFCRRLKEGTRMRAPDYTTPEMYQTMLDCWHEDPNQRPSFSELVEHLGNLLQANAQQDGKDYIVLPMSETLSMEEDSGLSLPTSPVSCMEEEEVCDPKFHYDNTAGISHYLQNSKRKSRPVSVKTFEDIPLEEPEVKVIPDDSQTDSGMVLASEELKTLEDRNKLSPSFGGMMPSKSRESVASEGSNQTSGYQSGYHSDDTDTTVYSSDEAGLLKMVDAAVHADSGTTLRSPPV

NS(=O)(=O)c1ccc2c(c1)C(=Cc1cc3c([nH]1)CCCC3)C(=O)N2
pIC50 [1]: 6.15
pIC50 [2]: 6.00
pIC50 ([3]; Homo sapiens): 6.19
pIC50 [3]: 5.97
pIC50 [4]: < 5.00
pIC50 ([5]; Homo sapiens): 5.62
pIC50 [5]: 5.48
pIC50 [6]: 6.10
pIC50 [7]: < 4.00
pIC50 [8]: < 4.00
